Laboratory results as given in patent publication US9327008B2, “Cell-permeant peptide-based inhibitor of kinases” (Purdue Research Foundation, priority 2008, dated 2016).

How the values were obtained:
Tie2 = target: T1, Tie2 (Homo sapiens, UniProt Q02763); assay: Millipore radiometric kinase activity assay, Tie2 (h); type: biochemical
T1 construct: purchased Millipore (radiometric assay service)
Procedure: (§1) A commercial radiometric assay service (Millipore, Billerica, Mass.) was used to test the specificity and potency of peptides containing a coupled transduction domain and therapeutic domain, hereinafter “complete peptides”). In these assays, if the kinase is not inhibited by an inhibitor peptide, a positively charged substrate is phosphorylated with a radiolabeled phosphate group from an ATP.
In a final reaction volume of 25 μL, Tie2 (h) (5-10 mU) is incubated with 8 mM MOPS pH 7.0, 0.2 mM EDTA, 0.5 mM MnCl2, 0.1 mg/mL poly(Glu, Tyr) 4:1, 10 mM MgAcetate and [γ-^33P-ATP] (specific activity approx. 500 cpm/pmol, concentration as required). The reaction is initiated by the addition of the MgATP mix. After incubation for 40 minutes at room temperature, the reaction is stopped by the addition of 5 μL of a 3% phosphoric acid solution. 10 μL of the reaction is then spotted onto a Filtermat A and washed three times for 5 minutes in 75 mM phosphoric acid and once in methanol prior to drying and scintillation counting.
IC50 values for inhibitor peptides were determined using Millipore's IC50Profiler Express service. The IC50 value was estimated from a 10-point curve of one-half log dilutions. […]

10 Human Kinases = assay: Specificity of complete inhibitor peptide variants on 10 human kinases; type: biochemical; conditions: Table 5
Procedure: as §1
IC50 values for inhibitor peptides were determined using Millipore's IC50Profiler Express service. The IC50 value was estimated from a 10-point curve of one-half log dilutions. For peptides tested for specificity, the concentration of the peptides that inhibited approximately 95% of MK2 activity was chosen to profile against a battery of kinases related to MK2, cell viability, or human disease from MilliporeKinaseProfiler service. In both assays, compounds were supplied in dimethylsulfoxide (DMSO). Every kinase activity measurement was conducted in duplicate.
Additional therapeutic inhibitor peptide variants were assayed for activity against several human kinases representative of several families of kinases. […]

[1] = system: IL-6 expression in triple culture of neurons, astrocytes and microglia; conditions: 1 mM or 3 mM MK2i with TNF-α 5 or 10 ng/ml
Procedure: The inhibitory effect of therapeutic inhibitor protein having amino acid sequence [sequence] [SEQ ID NO: 11] on IL-6 production was studied in a triple culture consisting of neurons, astrocytes and microglia. […] The E18 cells were plated (1×10^6 cells/ml) to support differentiation into neurons, astrocytes and microglia. […] The positive control comprised treating the cells with TNF-α (either 5 ng/ml or 10 ng/ml); as a negative control, the cells were exposed to cell media without any treatment. […] Cytokines with or without therapeutic inhibitor peptide were always added simultaneously in this media formulation.

[2] = system: IL-1β induced IL-6 expression in mesothelial cells (CRL-9444); assay: IL-6 ELISA, mesothelial cells induced with IL-1β; type: cell-based; conditions: IL-1β 1 ng/ml
Procedure: A cell line of pleural mesothelial cells (CRL-9444) was purchased from American Type Culture Collection. Cells were maintained and seeded in Medium 199 with Earle's BSS and 0.75 mM L-glutamine (Mediatech, Inc., Manassas, Va.), 1.25 g/L sodium bicarbonate (Sigma, St. Louis, Mo.), 3.3 nM epidermal growth factor (MBL International, Woburn, Mass.), 40 nM hydrocortisone (Sigma), 870 nM insulin (MBL International), 20 mM HEPES (Sigma), trace elements mixture B (Mediatech, Inc.), 10% fetal bovine serum (FBS) (Hyclone, Waltham, Mass.) and 1% penicillin/streptomycin (Mediatech, Inc.). Prior to treating cells with therapeutic inhibitor peptides, cells were allowed to acclimate in serum-free media consisting of only Medium 199 with Earle's BSS. L-glutamine, sodium bicarbonate, HEPES, trace elements mixture B, and penicillin/streptomycin (concentrations and suppliers as above) for 24 hours prior to treatment with cytokines and/or inhibitor peptides. […] For all cell culture experiments, the cell-penetrating MK2 inhibitor peptide sequence [sequence] [SEQ ID NO: 11] was used.
IL-6 analysis was performed with a IL-6 ELISA kit (PeproTech, Inc., Rocky Hill, N.J.). Briefly, the plate was prepared as follows. The capture antibody (antigen-affinity purified goat anti-hIL-6+2.5 mg D-mannitol) was diluted with phosphate buffered saline (PBS) to a concentration of 1 μg/ml and added to the each well of the plate. The plate was sealed and incubated at room temperature overnight. The wells then were aspirated to remove liquid, and washed 4 times using wash buffer (300 μl per well of 0.05% Tween-20 in PBS). After the last wash, the plate was inverted to remove residual buffer, and blotted on a paper towel. Block buffer (300 μl per well of 1% BSA in PBS) was added, the plate incubated for at least 1 hour at room temperature, aspirated and washed 4 times.
Standards (from 2 ng/ml to zero) and samples were prepared in diluent, immediately added to each well in triplicate, and incubated at room temperature for at least 2 hours on a plate shaker adjusted to 300 rpm. […] Following the incubation, the plate was aspirated, washed 4 times, avidin-horse radish peroxidase (HRP) conjugate added ((5.5 μl:10994.5 μl diluent) (100 μl) to each well, incubated for 30 minutes at room temperature on a plate shaker adjusted to 300 rpm, aspirated, and washed 4 times. To each well then was added ABTS Liquid Substrate Solution (Sigma) (100 μl). The plate was incubated at room temperature for color development on a plate shaker adjusted to 300 rpm. Absorbance was measured at 405 nm and 650 nm (650 nm was the wavelength correction subtracted from each 405 nm measurement) using a Spectramax M5 Microplate Reader (Molecular Devices) every 5 minutes for 50 minutes. Hoeschst 33342 nuclear stain (Invitrogen) was used to quantify cell number on the basis of DNA quantity. All results were run in triplicate and normalized to cell number.
One-way ANOVA analyses were used to determine statistically significant increases or decreases in parameters of interest. Significant differences were analyzed with Tukey HSD post hoc comparisons. A significance level of α=0.05 was used in cytokine analyses.
Mesothelial cells were incubated with IL-1β (1 ng/ml) (to induce IL-6 expression) and/or different concentrations of therapeutic inhibitor peptide. The commercially available protein kinase inhibitor Rottlerin was introduced as an inhibitor of both MK2 and PRAK.

[3] = system: IL-1β expression in rat primary cortical astrocyte cultures; conditions: 1 mM or 3 mM MK2i with TNF-α 5 or 10 ng/ml; 18-22 hours
Procedure: Primary rat astrocytes were isolated from embryonic day 18 Sprague Dawley rat cortices. […] Briefly, the rat cortexes were triturated with a 1 ml pipet aid until most of the large cortex pieces were dispersed. After larger tissue fragments were allowed to settle, the supernatant was collected, in a 15 ml conical tube, and pelleted by centrifugation at 1100 rpm for 1 minute. The resulting supernatant was discarded and the pellet resuspended in neurobasal media (10% horse serum, 3 mM glutamine). The astrocytes then were seeded in the petri dishes and grown until they were confluent (80-95%) after which time they were passed. Astrocytes were passed 1:4, grown to 80-95% confluency, then rinsed twice with PBS. Different treatment types were applied to each corresponding petri dish for 18-22 hours. There was a total of 1 ml of media (neurobasal media with 10% horse serum, 3 mM glutamine) plus treatment in each petri dish. […]
After 18-22 hours, the cells were rinsed with PBS, scraped into a small centrifuge tube using a lysis buffer (8 M urea, 4% CHAPS, 10 mM DTT), and disrupted by using a Disruptor Genie™ (Scientific Industries, Bohemia, N.Y.) for 2 hours. The cells were pelleted by centrifugation at 17 krpm for 15 minutes, the supernatant (cell lysate) collected and the total protein concentration quantified (Pierce BCA Protein Assay kit, Thermo Fisher Scientific, Rockford, Ill.).

T1 sequence (Q02763 23-1124): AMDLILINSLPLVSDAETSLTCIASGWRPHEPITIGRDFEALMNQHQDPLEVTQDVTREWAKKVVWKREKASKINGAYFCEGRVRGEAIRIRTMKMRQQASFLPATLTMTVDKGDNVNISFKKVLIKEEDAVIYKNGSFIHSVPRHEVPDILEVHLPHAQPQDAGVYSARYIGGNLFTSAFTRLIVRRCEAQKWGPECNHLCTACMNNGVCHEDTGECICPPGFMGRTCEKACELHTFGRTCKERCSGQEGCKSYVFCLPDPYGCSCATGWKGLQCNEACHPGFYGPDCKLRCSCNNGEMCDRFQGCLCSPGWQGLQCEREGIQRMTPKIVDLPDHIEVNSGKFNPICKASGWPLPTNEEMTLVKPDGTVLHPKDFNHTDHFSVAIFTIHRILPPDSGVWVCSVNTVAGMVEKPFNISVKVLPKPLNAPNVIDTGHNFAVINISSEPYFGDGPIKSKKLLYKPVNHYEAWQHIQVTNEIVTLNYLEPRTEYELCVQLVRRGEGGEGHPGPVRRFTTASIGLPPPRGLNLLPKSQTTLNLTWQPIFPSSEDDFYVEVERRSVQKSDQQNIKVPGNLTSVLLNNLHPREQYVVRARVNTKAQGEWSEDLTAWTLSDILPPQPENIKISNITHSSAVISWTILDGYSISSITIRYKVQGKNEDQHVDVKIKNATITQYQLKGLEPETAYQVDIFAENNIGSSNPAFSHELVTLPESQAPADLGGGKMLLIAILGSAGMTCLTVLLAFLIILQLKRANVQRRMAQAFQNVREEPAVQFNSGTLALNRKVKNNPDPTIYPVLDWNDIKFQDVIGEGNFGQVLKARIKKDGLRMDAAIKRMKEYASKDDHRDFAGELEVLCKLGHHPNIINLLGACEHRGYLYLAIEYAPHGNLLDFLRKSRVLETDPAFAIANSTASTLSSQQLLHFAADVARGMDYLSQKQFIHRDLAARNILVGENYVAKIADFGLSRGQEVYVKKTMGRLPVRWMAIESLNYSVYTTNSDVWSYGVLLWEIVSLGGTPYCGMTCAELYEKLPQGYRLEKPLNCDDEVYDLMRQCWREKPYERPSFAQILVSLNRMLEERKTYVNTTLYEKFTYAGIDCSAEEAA

WLRRIKAWLRRIKALNRQLGVAA
Tie2 Kinase Activity (%) (+SD %) (Tie2; peptide 30 μM): 17 (1) % | Tie2 Kinase Activity (%) (+SD %) (Tie2; peptide 100 μM): 0 (0) % | specificity among therapeutic inhibitor peptides (in words) (10 Human Kinases): least specificity

YARAAARQARAKALARQLGVAA
level of expression of IL-6 (FIG. 11) [1]: reduced levels of expression of IL-6 | IL-1β induced IL-6 expression (FIG. 7) ([2]; different concentrations of peptide): inhibited | time at which significant reduction of IL-1β induced IL-6 expression occurs ([2]; peptide 3 mM): 6 h | IL-1β induced IL-6 expression (FIG. 7) ([2]; peptide 3 mM (highest concentration)): significantly reduced | level of expression of IL-1β (FIG. 10) [3]: able to inhibit
